# Counter-ions that a name gives are not always drawn.
# Molecular target: T1, squalene synthase (Rattus norvegicus, UniProt Q02769)
# T1 construct: from tissue; host or cells: rat liver homogenate
# T1 sequence (Q02769 1-416): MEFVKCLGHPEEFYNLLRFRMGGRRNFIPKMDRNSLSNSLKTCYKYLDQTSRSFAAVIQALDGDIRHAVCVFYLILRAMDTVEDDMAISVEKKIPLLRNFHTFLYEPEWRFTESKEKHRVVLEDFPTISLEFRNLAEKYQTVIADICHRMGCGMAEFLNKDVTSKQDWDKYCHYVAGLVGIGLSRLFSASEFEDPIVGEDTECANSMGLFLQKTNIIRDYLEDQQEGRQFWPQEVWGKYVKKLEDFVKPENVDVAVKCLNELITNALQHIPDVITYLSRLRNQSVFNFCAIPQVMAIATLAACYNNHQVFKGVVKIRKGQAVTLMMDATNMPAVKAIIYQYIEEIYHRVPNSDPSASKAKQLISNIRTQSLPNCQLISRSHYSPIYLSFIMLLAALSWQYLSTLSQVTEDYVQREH
# Assay: Inhibition of squalene synthase ([14C]squalene production from [2-14C]farnesylpyrophosphate)
# Assay type: biochemical
# Conditions: not given
# Excerpt: A. Biller et al. in J. […] [¹⁴C]squalene is separated from unreacted substrate on thin layer chromatography plates and determined by liquid scintillation counting. […] Acta, Volume 877, 50-60 (1986) and modified to include measurement of cholesterol by high performance liquid chromatography (h.p.l.c.). […] A. […] [¹⁴C] Squalene was separated from unreacted substrate on thin layer chromatography plates and determined by liquid scintillation counting. Inhibition of squalene synthase was quantified by incubating rat liver homogenate with various concentrations of the test compound in the presence of [2-¹⁴C] farnesylpyrophosphate. The concentration of compound giving 50% inhibition of [¹⁴C] squalene production in a 30 minute assay was taken as the IC₅₀ value.
row,Compound,IC50 [µM]
1,"C=C(CC[C@]12O[C@H](C(=O)O)[C@@](O)(C(=O)O)[C@](C(=O)O)(O1)[C@H](OC(=O)CCCCCCCCC)[C@H]2O)[C@@H](OC(C)=O)[C@H](C)Cc1ccccc1 (relative stereo) [6-decanoate in Example 30, [1S-[1α(4R*,5S*),3α,4β,5α,6α,7β]] 1-(4-acetyloxy-5-methyl-3-methylene-6-phenylhexyl)-4,6,7-trihydroxy-2,8-dioxabicyclo[3.2.1]octane-3,4,5-tricarboxylic acid, 6-decanoate]",< 0.1
2,"C=C(CC[C@]12O[C@H](C(=O)O)[C@@](O)(C(=O)O)[C@](C(=O)O)(O1)[C@H](OC(=O)/C=C/[C@@H](C)C[C@@H](C)CC)[C@H]2O)[C@H](O)[C@H](C)Cc1ccccc1 (relative stereo) [Example 1, [1S-[1α(4S*,5S*),3α,4β,5α,6α(2E,4R*,6R*),7β]] 1-(4-Hydroxy-5-methyl-3-methylene-6-phenylhexyl)-4,6,7-trihydroxy-2,8-dioxabicyclo[3.2.1]octane-3,4,5-tricarboxylic acid, 6-(4,6-dimethyl-2-octenoate)]",< 0.1
3,"CC[C@H](C)C[C@H](C)CCC(=O)O[C@@H]1[C@@H](O)[C@@]2(C/C=C(\C)[C@@H](OC(C)=O)[C@H](C)Cc3ccccc3)O[C@H](C(=O)O)[C@@](O)(C(=O)O)[C@]1(C(=O)O)O2 (relative stereo) [Example 11, [1S-[1α[(E),4R*,5S*],3α,4β,5α,6α(4S*,6R*),7β]] 1-(4-Acetyloxy-3,5-dimethyl-6-phenyl-2-hexenyl)-4,6,7-trihydroxy-2,8-dioxabicyclo[3.2.1]octane-3,4,5-tricarboxylic acid, 6-(4,6-dimethyloctanoate)]",< 0.1
4,"C=C(CCC12OC(C(=O)O)C(O)(C(=O)O)C(C(=O)O)(O1)C(OC(C)=O)C2O)C(OC(C)=O)C(C)Cc1ccccc1 (stereo not drawn) [Compound 1 in Example 28, [1S-[1α(4R*,5S*),3α,4β,5α,6α,7β]] 1-(4-Acetyloxy-5-methyl-3-methylene-6-phenylhexyl)-4,6,7-trihydroxy-2,8-dioxabicyclo[3.2.1]octane-3,4,5-tricarboxylic acid, 6-acetate]",< 0.1
5,"C=C(CC[C@]12O[C@H](C(=O)O)[C@@](O)(C(=O)O)[C@](C(=O)O)(O1)[C@H](OC(=O)/C=C/[C@@H](C)C[C@@H](C)CC)[C@H]2O)C(=O)[C@H](C)Cc1ccccc1 [Example 3, [1S-[1α(5S^*),3α,4β,5α,6α(2E,4R^*,6R^*),7β]] 1-(5-Methyl-3-methylene-4-oxo-6-phenylhexyl)-4,6,7-trihydroxy-2,8-dioxabicyclo[3.2.1]octane-3,4,5-tricarboxylic acid, 6-(4,6-dimethyl-2-octenoate)]",< 0.1
6,"CCC(C)CC(C)CCC(=O)OC1C(O)C2(CCC(=O)C(O)C(C)Cc3ccccc3)OC(C(=O)O)C(O)(C(=O)O)C1(C(=O)O)O2 (stereo not drawn) [Example 17, [1S-[1α(4R*,5S*),3α,4β,5α,6α(4S*,6R*),7β]] 1-(4-Hydroxy-5-methyl-3-oxo-6-phenylhexyl)-4,6,7-trihydroxy-2,8-dioxobicyclo[3.2.1]octane-3,4,5-tricarboxylic acid, 6-(4,6-dimethyloctanoate)]",< 0.1
7,"CCC(C)CC(C)CCC(=O)OC1C(O)C2(CCCC(=O)CCc3ccccc3)OC(C(=O)O)C(O)(C(=O)O)C1(C(=O)O)O2 (stereo not drawn) [Example 19, [1S-[1α,3α,4β,5α,6α(4S*,6R*),7β]] 1-(4-Oxo-6-phenylhexyl)-4,6,7-trihydroxy-2,8-dioxabicyclo[3.2.1]octane-3,4,5-tricarboxylic acid, 6-(4,6-dimethyloctanoate)]",< 0.1
8,"CCC(C)CC(C)CCC(=O)OC1C(O)C2(CCCC(=O)C(C)Cc3ccccc3)OC(C(=O)O)C(O)(C(=O)O)C1(C(=O)O)O2 (stereo not drawn) [Example 20, [1S-[1α(5R*S*),3α,4β,5α,6α(4S*,6R*),7β]] 1-(5-Methyl-4-oxo-6-phenylhexyl)-4,6,7-trihydroxy-2,8-dioxabicyclo[3.2.1]octane-3,4,5-tricarboxylic acid, 6-(4,6-dimethyloctanoate)]",< 0.1
9,"CCC(C)CC(C)CCC(=O)OC1C(O)C2(CCC(C)C(=O)CCc3ccccc3)OC(C(=O)O)C(O)(C(=O)O)C1(C(=O)O)O2 (stereo not drawn) [Example 21, [1S-[1α[3R*(S*)],3α,4β,5α,6α(4S*,6R*),7β]] 1-(3-Methyl-4-oxo-6-phenylhexyl)-4,6,7-trihydroxy-2,8-dioxabicyclo[3.2.1]octane-3,4,5-tricarboxylic acid, 6-(4,6-dimethyloctanoate)]",< 0.1
10,"C=C(CCC12OC(C(=O)O)C(OC(C)=O)(C(=O)O)C(C(=O)O)(O1)C(OC(=O)C=CC(C)CC(C)CC)C2OC(C)=O)C(OC(C)=O)C(C)Cc1ccccc1 (stereo not drawn) [Example 25, [1S-[1α(4R*,5S*),3α,4β,5α,6α(2E,4R*,6R*),7β]] 1-(4-Acetyloxy-5-methyl-3-methylene-6-phenylhexyl)-4,7-diacetyloxy-6-hydroxy-2,8-dioxabicyclo[3.2.1]octane-3,4,5-tricarboxylic acid, 6-(4,6-dimethyl-2-octenoate)]",< 0.1
11,"C=C(CCC12OC(C(=O)O)C(O)(C(=O)O)C(C(=O)O)(O1)C(OC(=O)C=CC(C)CC(C)CC)C2OC(=O)OC)C(OC(C)=O)C(C)Cc1ccccc1 (stereo not drawn) [Example 26, [1S-[1α(4R*,5S*),3α,4β,5α,6α(2E,4R*,6R*),7β]] 1-(4-Acetyloxy-5-methyl-3-methylene-6-phenylhexyl)-4,6-dihydroxy-7-[(methoxycarbonyl)oxy]-2,8-dioxabicyclo[3.2.1]octane-3,4,5-tricarboxylic acid, 6-(4,6-dimethyl-2-octenoate)]",< 0.1

# Same assay, conditions: rat liver homogenate; [2-¹⁴C] farnesylpyrophosphate as substrate; 50% inhibition of [¹⁴C] squalene production in a 30 minute assay; read-out: IC₅₀
row,IC50 [µM],Compound
1,< 0.1,"CCC(C)CC(C)/C=C/C(=O)OC1C(O)C2(CCC(C)C(O)C(C)Cc3ccccc3)OC(C(=O)O)C(O)(C(=O)O)C1(C(=O)O)O2 (single isomer, unassigned) [Example 8, [1S-[1α[3R*(S*),4R*(S*),5S*],3α,4β,5α,6α(2E,4R*,6R*),7β]] 1-(4-Hydroxy-3,5-dimethyl-6-phenylhexyl)-4,6,7-trihydroxy-2,8-dioxabicyclo[3.2.1]octane-3,4,5-tricarboxylic acid, 6-(4,6-dimethyl-2-octenoate), isomer 3 and isomer 4]"
2,< 0.1,"CCC(C)CC(C)CCC(=O)OC1C(O)C2(CCC(C)C(=O)C(C)Cc3ccccc3)OC(C(=O)O)C(O)(C(=O)O)C1(C(=O)O)O2 (single isomer, unassigned; isomer 1) [isomer 1 in Example 16, [1S-[1α(3R*(S*),5S*),3α,4β,5α,6α(4S*,6R*),7β]] 1-(3,5-Dimethyl-4-oxo-6-phenylhexyl)-4,6,7-trihydroxy-2,8-dioxabicyclo[3.2.1]octane-3,4,5-tricarboxylic acid, 6-(4,6-dimethyloctanoate), 3,4,5-tripotassium salt]"
3,< 0.1,"COC(=O)OC1C(O)C2(CCC(C)C(OC(C)=O)C(C)Cc3ccccc3)OC(C(=O)O)C(O)(C(=O)O)C1(C(=O)O)O2 (stereo not drawn) [Compound (I) in Example 65, [1S-[1α(3R*S*,4S*,5S*),3α,4β,5α,6α,7β]] 1-(4-Acetyloxy-3,5-dimethyl-6-phenylhexyl)-4,7-dihydroxy-6-[[(methoxycarbonyl]oxy]-2,8-dioxabicyclo[3.2.1]octane-3,4,5-tricarboxylic acid]"
4,< 0.1,"C=C(CCC12OC(C(=O)O)C(O)(C(=O)O)C(C(=O)O)(O1)C(OC(=O)CCCCC(C)=O)C2O)C(OC(C)=O)C(C)Cc1ccccc1 (stereo not drawn) [Example 53, [1S-[1α(4R*,5S*),3α,4β,5α,6α,7β]] 1-(4-Acetyloxy-5-methyl-3-methylene-6-phenylhexyl)-4,6,7-trihydroxy-2,8-dioxabicyclo[3.2.1]octane-3,4,5-tricarboxylic acid, 6-(6-oxo-heptanoate)]"

# System: clinically relevant pathogens
# Assay: In vitro antifungal activity, agar plate MIC determination
# Assay type: cell-based
# Conditions: Candida albicans
# Procedure: The in vitro evaluation of the anti-fungal activity of compounds of the invention can be performed by determining the minimum inhibitory concentration (MIC) which is the concentration of the test compound in a suitable medium at which growth of a particular microorganism fails to occur.
# [¹⁴C] Squalene was separated from unreacted substrate on thin layer chromatography plates and determined by liquid scintillation counting. Inhibition of squalene synthase was quantified by incubating rat liver homogenate with various concentrations of the test compound in the presence of [2-¹⁴C] farnesylpyrophosphate. The concentration of compound giving 50% inhibition of [¹⁴C] squalene production in a 30 minute assay was taken as the IC₅₀ value. […] In practice, a series of agar plates, each having the test compound incorporated at a particular concentration, was inoculated with a standard culture of a clinically relevant pathogen, for example Candida albicans, and each plate was then incubated at 37 °C for 24 to 48 hours depending on the pathogen.
row,Compound,MIC [µg/mL]
1,"C=C(CC[C@]12O[C@H](C(=O)O)[C@@](O)(C(=O)O)[C@](C(=O)O)(O1)[C@H](OC(=O)CCCCCCCCC)[C@H]2O)[C@@H](OC(C)=O)[C@H](C)Cc1ccccc1 (relative stereo) [6-decanoate in Example 30, [1S-[1α(4R*,5S*),3α,4β,5α,6α,7β]] 1-(4-acetyloxy-5-methyl-3-methylene-6-phenylhexyl)-4,6,7-trihydroxy-2,8-dioxabicyclo[3.2.1]octane-3,4,5-tricarboxylic acid, 6-decanoate]",0.1 to 31
2,"C=C(CC[C@]12O[C@H](C(=O)O)[C@@](O)(C(=O)O)[C@](C(=O)O)(O1)[C@H](OC(=O)/C=C/[C@@H](C)C[C@@H](C)CC)[C@H]2O)[C@H](O)[C@H](C)Cc1ccccc1 (relative stereo) [Example 1, [1S-[1α(4S*,5S*),3α,4β,5α,6α(2E,4R*,6R*),7β]] 1-(4-Hydroxy-5-methyl-3-methylene-6-phenylhexyl)-4,6,7-trihydroxy-2,8-dioxabicyclo[3.2.1]octane-3,4,5-tricarboxylic acid, 6-(4,6-dimethyl-2-octenoate)]",0.1 to 31
3,"CC[C@H](C)C[C@H](C)CCC(=O)O[C@@H]1[C@@H](O)[C@@]2(C/C=C(\C)[C@@H](OC(C)=O)[C@H](C)Cc3ccccc3)O[C@H](C(=O)O)[C@@](O)(C(=O)O)[C@]1(C(=O)O)O2 (relative stereo) [Example 11, [1S-[1α[(E),4R*,5S*],3α,4β,5α,6α(4S*,6R*),7β]] 1-(4-Acetyloxy-3,5-dimethyl-6-phenyl-2-hexenyl)-4,6,7-trihydroxy-2,8-dioxabicyclo[3.2.1]octane-3,4,5-tricarboxylic acid, 6-(4,6-dimethyloctanoate)]",0.1 to 31
4,"CC[C@H](C)C[C@H](C)CCC(=O)O[C@@H]1[C@@H](O)[C@@]2(CCC(C)[C@@H](O)[C@H](C)Cc3ccccc3)O[C@H](C(=O)O)[C@@](O)(C(=O)O)[C@]1(C(=O)O)O2 (relative stereo) [Example 13, [1S-[1α(3R*S*,4S*,5S*),3α,4β,5α,6α(4S*,6R*),7β]] 1-(3,5-Dimethyl-4-hydroxy-6-phenylhexyl)-4,6,7-trihydroxy-2,8-dioxabicyclo[3.2.1]octane-3,4,5-tricarboxylic acid, 6-(4,6-dimethyloctanoate)]",0.1 to 31

# Source: patent EP0497091A1, “Bridged cyclic ketal derivatives” (GLAXO GROUP LIMITED, priority 1991, dated 1992)
